Assay results from patent US20230129595A1, “PARENTERAL NUTRITION SOLUTION COMPRISING A SELENIUM SOURCE” (BAXTER INTERNATIONAL INC., priority 2019, published 2023).

How the values were obtained:
[1] = Selenium stability in sterilized multi trace element solutions, recovery of initial concentration (Example 4, FIGS. 1-3); details: for Selenium concentration during storage: FIGS. 1-3
Source text: FIGS. 1-3: The recovery of the initial concentration of the different trace elements in percent (%) is indicated on the Y-axis of the Figures. The analyzed timepoints are is indicated on the X-axis. The timepoint −0.5 corresponds to the results of TE dosage on unsterilized sample at T0. Timepoint 0 corresponds to the results of TE dosage right after sterilization. Timepoint 0.5 correspond to the results of TE dosage after an accelerated stability stress cycle (i.e. three repetition of alternatively 5° C./50° C., 48 h/48 h). Timepoints 1, 3 and 6 correspond to the results of TE dosage after 1 month, 3 months and 6 months storage at 40° C./25% RH.
For the three tested solutions containing different forms of selenium, the selenium is mixed with other TE (Zn, Cu, Mn, F, I, Mo, Cr, Fe), which were introduced as chloride salts. The solutions were acidified to pH 2.2 using malic acid and underwent terminal heat sterilization prior to storage.

[2] = Pediaven, trace elements in the glucose chamber; announced July 2014; cited from earlier work
[3] = Storage stability of selenium sources in a separate chamber (Example 3); details: separated chamber, alone or together with other trace elements; after 6 months storage at 40° C./25% RH
Source text: Selenate was introduced with other trace elements into a separate chamber from macronutrients.

[4] = cited from earlier work
[5] = mixed with other TE, pH 2.2 with malic acid, terminal heat sterilization
[6] = mixed with other TE, pH 2.2 with malic acid, terminal heat sterilization, storage at 40° C./25% RH, selenate and selenomethionine compared with selenite

Row | SMILES | Selenium concentration during storage [1, 5] | Stability of selenium after storage for three months [1, 6] | Stability in solution [3] | other results
1 | C[Se]CC[C@H](N)C(=O)O [selenomethionine] | remained stable |  |  | Stability of selenium after storage for three months ([1]; pH 2.2): better stability
2 | O=[Se]=O [selenium dioxide] |  |  |  | Presence of selenium in the finished product [2]: absent in the finished product
3 | O=[Se](=O)(O)O [sodium selenate] | remained stable | better stability | remained stable | 
4 | N[C@@H](C[SeH])C(=O)O [selenocysteine] |  |  | remained stable | 
5 | [Na+].[Na+].[O]=[Mo](=[O])([O-])[O-] [Na2MoO4, 2H2O, sodium molybdate] |  |  |  | Chemical form; Solubility in water [4]: <840 mg/mL
6 | O=[Se](O)O [selenite, reference compound] |  | lack of stability |  | 
